Results from ChEMBL document CHEMBL1123536, “Studies on Ca2+ channel antagonists. 5-[(3,4-Dimethoxyphenethyl)methylamino]-2-(3,4-dimethoxyphenyl)-2- isopropylpentyl isothiocyanate, a chemoaffinity ligand derived from verapamil” (J Med Chem, 1986).

Legend:
Rattus norvegicus [1] = species: Rattus norvegicus; experiment: Compound was evaluated for the displacement of [3H]gallopamil from specific binding sites on rat myocardial membrane particulates; details: Myocardium
Rattus norvegicus [2] = species: Rattus norvegicus; experiment: Compound was evaluated for the concentration dependent negative ionotropic effect in rat right myocardial ventricular strips; type: functional; details: Cardiac ventricle

| IC50 (Rattus norvegicus [1]) [nM] | EC50 (Rattus norvegicus [2]) [nM] | Compound |
| --- | --- | --- |
| 342 | 4560 | COc1ccc(CCN(C)CCCC(CN=C=S)(c2ccc(OC)c(OC)c2)C(C)C)cc1OC (stereo unspecified) |
| 16 | 1950 | COc1ccc(CCN(C)CCCC(C#N)(c2cc(OC)c(OC)c(OC)c2)C(C)C)cc1OC (stereo unspecified) [GALLOPAMIL] |
| 362 | 2510 | COc1ccc(CCN(C)CCCC(C#N)(c2ccc(OC)c(OC)c2)C(C)C)cc1OC (stereo unspecified) [VERAPAMIL] |
